Test results taken from article PMC4710668, “Bioactivation of food genotoxicants 5-hydroxymethylfurfural and furfuryl alcohol by sulfotransferases from human, mouse and rat: a comparative study” (Archives of Toxicology, 2014).
Read-outs that look alike come from different tables or passages of the source.

Experiments:
hSULT1A1 = biological target: T1, hSULT1A1 (Homo sapiens, UniProt P50225); details: cited from earlier work; for K M of sulfoconjugation: ref Honma et al. [2001]
T1 construct: made in house; host or cells: Salmonella typhimurium TA1538 (cytosolic fraction, not purified)
T1 sequence (P50225 whole entry): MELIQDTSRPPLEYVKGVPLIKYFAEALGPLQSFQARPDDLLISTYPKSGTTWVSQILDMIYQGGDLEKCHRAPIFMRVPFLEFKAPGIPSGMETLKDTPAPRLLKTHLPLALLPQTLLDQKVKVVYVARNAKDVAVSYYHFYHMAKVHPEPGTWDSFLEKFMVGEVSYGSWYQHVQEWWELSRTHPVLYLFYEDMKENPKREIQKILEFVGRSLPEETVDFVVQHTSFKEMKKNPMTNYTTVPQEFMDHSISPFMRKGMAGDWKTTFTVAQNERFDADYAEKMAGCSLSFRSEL

[1] = Stability of SMF in solution; type: physicochemical; details: solutions containing 75 % 2-propanol at 4 °C, within four weeks
Method: The analytical technique used in this study was adapted from the SMF quantification in plasma samples of HMF-treated mice (Monien et al. [2009]). This is beset with two potential sources of inaccuracy. […] Here, we chose a reaction time of 30 min. […] SMF was analyzed by UPLC-MS/MS in the MRM mode using the specific fragmentation reactions of the sulfate ion radical (m/z = 204.9 → 96.0) and the protonated sulfonate ion (m/z = 204.9 → 81.0) (Monien et al. [2009]). Representative chromatograms are shown in Fig. S2 of the Supplementary Material. The SMF levels resulting from HMF sulfoconjugation were quantified using SMF solutions at various concentrations as external calibration line prepared in water/2-propanol (1:3), which represents the solvent composition in the incubation mixture following instant stopping and precipitating of proteins. The second source of imprecision of mass spectrometric SMF quantification with an external calibration is the possible ion suppression by residues from bacterial cytosol or buffer salts in the samples. This was tested in a separate experiment measuring the peak areas of six series of solutions with five different SMF concentrations, either prepared with water or with the contents of the incubation mixture including 1 mg/ml protein from a cytosolic preparation of native S. typhimurium TA1538.

[2] = design: method as in Monien et al. [2009]; details: ref Monien et al. [2009], cited from earlier work
[3] = design: method as in Glatt et al. [2012]; details: in water at 37 °C; ref Glatt et al. [2012]; cited from earlier work

CC(=O)Nc1ccc(O)cc1 [paracetamol]
K M of turnover (hSULT1A1; ref Adjei et al. [2008]): 2400 µM

O=Cc1ccc(COS(=O)(=O)O)o1 [SMF, 5-sulfoxymethylfurfural]
stability [1]: without any detectable degradation
half-life ([2]; in plasma at 37 °C): 1.8 h
half-life ([2]; in urine at 37 °C): 2.1 h
half-life ([2]; in water at 37 °C): 1.9 h

O=[N+]([O-])c1ccc(O)cc1 [p-nitrophenol]
K M of sulfoconjugation (hSULT1A1): 3.0 µM

NCCc1ccc(O)c(O)c1 [dopamine]
K M of sulfoconjugation (hSULT1A1): 130 µM

COc1cc2c(CCNC(C)=O)c[nH]c2cc1O [6-hydroxymelatonin]
K M of sulfoconjugation (hSULT1A1): 18 µM

O=S(=O)(O)OCc1ccco1 [2-sulfoxymethylfuran]
t 1/2 [3]: 20 s
